Experiments:
[1] = drug substance without excipients
[2] = especially in its phosphate salt form
[3] = drug substance without MCC
[4] = especially in its phosphate salt form; remark: listed apart in the source

## N#Cc1ccc([C@H]2CCc3cncn32)c(F)c1 [compound of formula (1), 4-[(5R)-6,7-dihydro-5H-pyrrolo[1,2-c]imidazol-5-yl]-3-fluorobenzonitrile]
[1]
  flowability, ffc (poorly flowable): 1.1
[2]
  drug substance bulk density: 0.1 to 0.3 g/mL
[3]
  primary particle size: ca. 4 micron
[4]
  hygroscopicity: hygroscopic

Reference: patent US20170202808A1, “PHARMACEUTICAL DOSAGE FORMS” (Novartis AG, priority 2014, published 2017)
